In ChEMBL document CHEMBL4177696, “Identification of a diverse synthetic abietane diterpenoid library and insight into the structure-activity relationships for antibacterial activity” (Bioorg Med Chem Lett, 2017):
Values after ≈ are worked out from the molar mass of the structure shown.

Assays:
Format in all cases: functional
Staphylococcus aureus = experiment: Antibacterial activity against Staphylococcus aureus measured after 24 hrs
Pseudomonas fluorescens = experiment: Antibacterial activity against Pseudomonas fluorescens measured after 24 hrs
Escherichia coli = experiment: Antibacterial activity against Escherichia coli measured after 24 hrs
Bacillus subtilis = experiment: Antibacterial activity against Bacillus subtilis measured after 24 hrs

MIC (Staphylococcus aureus) [µg/mL] | MIC (Pseudomonas fluorescens) [µg/mL] | MIC (Escherichia coli) [µg/mL] | MIC (Bacillus subtilis) [µg/mL] | SMILES
100 (≈ 347 µM) | 100 (≈ 347 µM) | 75 (≈ 260 µM) | 100 (≈ 347 µM) | COc1c(C(C)C)ccc2c1CC[C@H]1[C@@H](O)CCC[C@]21C
75 (≈ 262 µM) | 100 (≈ 349 µM) | 75 (≈ 262 µM) | 100 (≈ 349 µM) | COc1c(C(C)C)ccc2c1CC[C@H]1C(=O)CCC[C@]21C
50 (≈ 197 µM) | 1.6 (≈ 6.29 µM) | 0.8 (≈ 3.15 µM) | 25 (≈ 98.3 µM) | C[C@]12CC=C3C(=O)OC[C@@H]3[C@@H]1CCc1ccccc12
100 (≈ 256 µM) | 75 (≈ 192 µM) | 100 (≈ 256 µM) | 100 (≈ 256 µM) | COc1cccc2c1CC[C@H]1[C@@H](CO)[C@H](O[Si](C)(C)C(C)(C)C)CC[C@]21C
50 (≈ 144 µM) | 75 (≈ 216 µM) | 50 (≈ 144 µM) | 25 (≈ 72 µM) | COc1c(C(C)C)ccc2c1CC[C@H]1C(=O)CCC[C@]21CO[N+](=O)[O-]
75 (≈ 215 µM) | 100 (≈ 287 µM) | 75 (≈ 215 µM) | 100 (≈ 287 µM) | COC(=O)[C@]1(C)CCC[C@@]2(C)[C@H]1CC=C1C(=O)[C@@](O)(C(C)C)CC[C@@H]12
25 (≈ 75.9 µM) | 50 (≈ 152 µM) | 50 (≈ 152 µM) | 50 (≈ 152 µM) | COC(=O)[C@]1(C)CCC[C@]2(C)c3ccc(C(C)C)c(N)c3CC[C@@H]12
100 (≈ 352 µM) | 100 (≈ 352 µM) | 100 (≈ 352 µM) | 75 (≈ 264 µM) | C=C1CCC[C@]2(C)c3ccc(C(C)C)c(OC)c3CC[C@@H]12
25 (≈ 63 µM) | 25 (≈ 63 µM) | 25 (≈ 63 µM) | 50 (≈ 126 µM) | COc1ccc(COC[C@H]2[C@H](O)CC[C@]3(C)c4cccc(OC)c4CC[C@@H]23)cc1
75 (≈ 214 µM) | 75 (≈ 214 µM) | 100 (≈ 285 µM) | 75 (≈ 214 µM) | COC(=O)[C@]1(C)CCC[C@@]2(C)[C@H]1CC=C1[C@@H]2CC[C@](O)(C(C)C)[C@H]1O
75 (≈ 218 µM) | 75 (≈ 218 µM) | 100 (≈ 290 µM) | 75 (≈ 218 µM) | COC(=O)[C@]1(C)CCC[C@]2(C)c3ccc(C(C)C)c(OC)c3CC[C@@H]12
100 (≈ 292 µM) | 100 (≈ 292 µM) | 100 (≈ 292 µM) | 100 (≈ 292 µM) | COc1c(C(C)C)ccc2c1CC[C@@]1(O)C3=C(CC[C@]21C)C(=O)OC3
50 (≈ 146 µM) | 75 (≈ 219 µM) | 50 (≈ 146 µM) | 75 (≈ 219 µM) | COc1c(C(C)C)ccc2c1CC[C@H]1C3=C(CC[C@]21CO)C(=O)OC3
100 (≈ 333 µM) | 100 (≈ 333 µM) | 100 (≈ 333 µM) | 100 (≈ 333 µM) | C=C1[C@H](O)CC[C@]2(C)c3ccc(C(C)C)c(OC)c3CC[C@@H]12
100 (≈ 352 µM) | 100 (≈ 352 µM) | 100 (≈ 352 µM) | 100 (≈ 352 µM) | COc1cccc2c1CC[C@H]1C3=C(CC[C@]21C)C(=O)OC3
50 (≈ 161 µM) | 100 (≈ 322 µM) | 100 (≈ 322 µM) | 100 (≈ 322 µM) | COc1c(C(C)C)ccc2c1CC[C@H]1c3cocc3CC[C@]21C
100 (≈ 277 µM) | 75 (≈ 208 µM) | 100 (≈ 277 µM) | 75 (≈ 208 µM) | CC(C)(C)[Si](C)(C)O[C@@H]1CC[C@]2(C)c3ccccc3CC[C@H]2[C@H]1CO
100 (≈ 286 µM) | 25 (≈ 71.5 µM) | 100 (≈ 286 µM) | 75 (≈ 215 µM) | COc1c(C(C)C)ccc2c1CC[C@H]1[C@@H](O)CCC[C@]21CO[N+](=O)[O-]
50 (≈ 152 µM) | 25 (≈ 76.1 µM) | 75 (≈ 228 µM) | 25 (≈ 76.1 µM) | COC(=O)C1=C[C@@H]2CCc3c(ccc(C(C)C)c3OC)[C@@]2(C)CC1
50 (≈ 139 µM) | 50 (≈ 139 µM) | 25 (≈ 69.7 µM) | 50 (≈ 139 µM) | COC(=O)[C@]1(C)CCC[C@]2(C)c3ccc(C(C)C)c(OC)c3C(=O)C[C@@H]12
75 (≈ 236 µM) | 50 (≈ 157 µM) | 75 (≈ 236 µM) | 100 (≈ 314 µM) | COc1c(C(C)C)ccc2c1CC[C@H]1[C@@H](CO)[C@H](O)CC[C@]21C
100 (≈ 306 µM) | 100 (≈ 306 µM) | 100 (≈ 306 µM) | 100 (≈ 306 µM) | COc1c(C(C)C)ccc2c1CC[C@H]1C3=C(CC[C@]21C)C(=O)OC3
100 (≈ 292 µM) | 75 (≈ 219 µM) | 75 (≈ 219 µM) | 100 (≈ 292 µM) | C=C1[C@H](O[Si](C)(C)C(C)(C)C)CC[C@]2(C)c3ccccc3CC[C@@H]12
100 (≈ 393 µM) | 75 (≈ 295 µM) | 100 (≈ 393 µM) | 75 (≈ 295 µM) | C[C@]12CCC3=C(COC3=O)[C@@H]1CCc1ccccc12

SMILES | MIC (Staphylococcus aureus) [µg/mL] | MIC (Pseudomonas fluorescens) [µg/mL] | MIC (Escherichia coli) [µg/mL] | MIC (Bacillus subtilis) [µg/mL]
COC(=O)[C@]1(C)CCC[C@]2(C)c3ccc(C(C)C)c(O)c3CC[C@@H]12 | 50 (≈ 151 µM) | 25 (≈ 75.7 µM) | 50 (≈ 151 µM) | 75 (≈ 227 µM)
